Measurements from US20110212100A1, “METHODS FOR MODULATING DEVELOPMENT AND EXPANSION OF IL-17 EXPRESSING CELLS” (priority 2007, published 2011).

Legend:
Assay type in all cases: cell-based, mouse
[1] = system: Th17 differentiation of CD4+ CD25− T cells; assay: Th17 differentiation (IL-17+ IFNγ− cells) of T cells activated with TGFβ plus IL-6
Experimental: Low doses of halofuginone (HF) were tested to determine the ability of HF to enhance Treg differentiation, while suppressing Th17 differentiation. Nave. CD4+ T cells (CD4+ CD25−) were isolated from the spleen and peripheral lymph nodes of C57B/6 mice. T cells were then activated using anti-CD3 (0.3 μg/ml) and anti-CD28 (0.5 μg/ml) antibodies either in media alone (row 1, 4), TGFβ alone (3 ng/ml—row 2, 5) or TGFβ (3 ng/ml) plus IL-6 (30 ng/ml) (row 3, 6). […] T cells were cultured for 3 days and CD25 and Foxp3 expression (Treg marker genes) was determine by FACS staining and flow cytometric analyses. Simultaneously, T cells were harvested and re-stimulated for 4 hours using phorbol myristic acetate (PMA; 10 nM), Ionomycin (1 μM) and cytokine secretion was prevented using brefeldin A (20 μg/ml). Following stimulation, the production of IL-17 and IFNγ were determined by intracellular staining and analyzed via flow cytometry.
(§1) The dose-response of HF on CD4+ T cell proliferation, activation (i.e. CD25 upregulation) and differentiation to Th1, Th2 and Th17 lineages were evaluated. Purified murine naïve CD4+ CD25− T cells were activated using anti-CD3 (0.3 μg/ml) and anti-CD28 (0.5 μg/ml) antibodies and varying amounts of HF was added to each T cell culture condition (1.25 nM-40 nM). CD4+ T cell proliferation was monitored by CFSE dilution on day 3-post activation and CD25 expression was evaluated by FACS staining 2 days after activation. For T cell differentiation experiments, naïve T cells were activated as above in the presence of Th1 (IL-12 (20 ng/ml) plus anti-IL-4 (10 μg/ml)), Th2 (IL-4 (50 ng/ml) plus anti-IFNγ (0.5 mg/ml)) or Th17 (TGFβ (3 ng/ml) plus IL-6 (30 ng/ml)) polarizing conditions plus titrating amounts of HF (1.25 nM-40 nM) or MAZ1310 (40 nM). The percentage of Th17 cells, (IL-17^+ IFNγ^−) was evaluated on day 3 following activation, whereas the abundance of Th1 cells (IFNγ^+ IL-4) and Th2 cells (IL-4^+ IFNγ^−) was determined 5 days following activation. All cytokine expression was determined by intracellular staining following PMA+Ionomycin+Brefeldin A re-stimulation and all data was normalized to control (MAZ1310)-treated cells. […] Biol., vol. 80:1-8 (2006).
(§2) Cytokines, antibodies and T cell culture: Purified CD4^+ CD25^− T cells were activated in vitro as previously described (I. M. Djuretic et al., Nat Immunol 8, 145 (2007)) using 0.3 μg/ml hamster anti-mouse CD3 (clone 145-2C11) (ATCC—Manassas, Va.) and 0.5 μg/ml hamster anti-mouse CD28 (BD Pharmingen, San Jose, Calif.). Activated cell cultures were differentiated using the following combinations of cytokines and antibodies: iTreg=recombinant human TGFβ1 (3 ng/ml; R&D systems, Minneapolis, Minn.), Th17βTGFβ1 (3 ng/ml) plus recombinant mouse IL-6 (30 ng/ml, R&D systems). Th1 and Th2 differentiation was performed as previously described. (I. M. Djuretic et al., Nat Immunol 8, 145 (2007)). Human IL-2 supernatant (National Cancer Institute) was used in culture at 0.01 U/ml and was added at 48 hours-post activation when T cells were split into tissue culture wells lacking CD3 and CD28 antibodies, with the exception of Th17 cultures that were maintained in the absence of IL-2. All reagents were added at the time of T cell activation and again at 48-hours post activation unless indicated otherwise. For some experiments, purified CD4^+ CD25^− T cells, CD8^+ T cells or B cells were labeled with 1 μM CFSE (Invitrogen) prior to activation in accordance with manufacturers instructions.
Detection of cytokine production: Cytokines secreted into media supernatant were measured using the mouse Th1/Th2 cytometric bead array (CBA, BD Pharmingen) in accordance with manufacturers instructions.

CD4+ CD25− T cells = assay: CD4+ T cell proliferation, CD25 upregulation, cytokine production and Th1/Th2/iTreg differentiation; details: titrating concentrations of tunicamycin
Experimental: as §1, §2
Detection of cytokine production: Cytokines secreted into media supernatant were measured using the mouse Th1/Th2 cytometric bead array (CBA, BD Pharmingen) in accordance with manufacturers instructions. […]

[2] = system: TGFβ-induced Smad phosphorylation; assay: TGFβ signaling in T and B cells (Smad phosphorylation, lymphocyte responses to TGFβ); details: HF 2.5-40 nM or 10 nM; SB-431542 10 μM
Experimental: T cells were then activated in the presence or absence of 3 ng/ml. TGFβ. Whole cell extracts were prepared after 1 hour of stimulation and western blot analyses were performed using the indicated antibodies.
Western blotting: Whole cell lysates were generated from T cells activated for the indicated times. For STAT3 and Smad2/3 western blots cells were harvested, washed in PBS and lysed in 50 mM Tris, pH 7.4, 0.1% SDS, 1% Triton-X100, 140 mM NaCl, 1 mM EDTA, 1 mM EGTA supplemented with protease inhibitors tablets (Roche-Germany), 1 mM NaF and 1 mM Na3VO4. For eIF2α and ATF4 western blots, cells were harvested as above and lysed in 50 mM Tris, pH 7.4, 2% SDS, 20% glycerol and 2 mM EDTA supplemented with protease and phosphatase inhibitors as above. All lysates were cleared via centrifugation and 15-30 μg of protein was resolved by SDS-PAGE. Protein was transferred to nitrocellulose membranes, blocked and blotted using specific antibodies. Antibodies used for western blot analysis were anti-phospho-Smad2, anti-STAT3 (pY705), anti-STAT3, anti-eIF2α^pS51, anti-eIF2α, anti-GCN2^pT898, anti-GCN2 (all from cell signaling technology, Danvers, Mass.). Anti-ATF4/CREB2 and anti-β-actin were purchased from Santa Cruz biotechnology (Santa Cruz, Calif.). […]

## N[C@H](CO)Cc1c[nH]c2ccccc12 [L-tryptophanol]
[1]; 0.2 mM in complete medium, TGFβ plus IL-6
  effect of L-tryptophanol on IL-17 production, in words: impaired IL-17 production

## tunicamycin
[1]; titrating concentrations of tunicamycin
  effect of tunicamycin on IL-17 expression in T cells, in words: little influence on IL-17 expression
CD4+ CD25− T cells
  effect of tunicamycin on Th1 and Th2 differentiation, in words: preferentially impaired Th1 and Th2 differentiation

## NC(=O)c1ccc(-c2nc(-c3ccc4c(c3)OCO4)c(-c3ccccn3)[nH]2)cc1 [SB-431542]
[2]
  effect on TGFβ-induced Smad phosphorylation and other lymphocyte responses to TGFβ, in words: abrogated all responses to TGFβ

## CC(C)(C)OC(=O)N1CCC[C@H](O)[C@H]1CC(=O)Cn1cnc2cc(Br)c(Cl)cc2c1=O [MAZ1310]
[1]; used at equal concentrations as HF
  activity of the HF derivative used as negative control, in words: inactive
